Our source for the Emax values is article PMC8897147 (Acta Pharmaceutica Sinica. B, 2021).

Usually Emax stands for the size of the effect at its maximum, as opposed to the concentration needed.

Assay [1] relates to SCTR. The experiment in a line: Gαq activation. Particulars: HEK293A, % of max, receptor only, mean ± SEM n≥3.
For assay [2], the system named is SCTR. As to the kind of experiment: β-Arrestin2 recruitment. Particulars: COS-7, % of max, receptor only, mean ± SEM n≥3. (In general: Recruitment of arrestin is a read-out of receptor activation apart from second messengers.)
Assay [3] relates to SCTR. As to the kind of experiment: cAMP accumulation. Particulars: COS-7; vector (no RAMP); % of max, receptor only; mean ± SEM n≥3. On the technique in general: cAMP levels reflect the balance of adenylyl cyclase and phosphodiesterase activity.
Assay [4] has as its system SCTR. The experiment in a line: β-Arrestin1 recruitment. Particulars: COS-7, % of max, receptor only, mean ± SEM n≥3.
For assay [5], the target named is T1, CLR/RAMP3 (Homo sapiens, UniProt O60896+Q16602). The experiment in a line: β-Arrestin1 recruitment. Particulars: COS-7.
The target in the next assay is CLR (Homo sapiens, UniProt Q16602). The experiment in a line: cAMP accumulation. Particulars: COS-7.
Assay [6] concerns the target T1, CLR/RAMP3. As to the kind of experiment: β-Arrestin2 recruitment. Particulars: COS-7.

T1 sequence (Q16602 23-461): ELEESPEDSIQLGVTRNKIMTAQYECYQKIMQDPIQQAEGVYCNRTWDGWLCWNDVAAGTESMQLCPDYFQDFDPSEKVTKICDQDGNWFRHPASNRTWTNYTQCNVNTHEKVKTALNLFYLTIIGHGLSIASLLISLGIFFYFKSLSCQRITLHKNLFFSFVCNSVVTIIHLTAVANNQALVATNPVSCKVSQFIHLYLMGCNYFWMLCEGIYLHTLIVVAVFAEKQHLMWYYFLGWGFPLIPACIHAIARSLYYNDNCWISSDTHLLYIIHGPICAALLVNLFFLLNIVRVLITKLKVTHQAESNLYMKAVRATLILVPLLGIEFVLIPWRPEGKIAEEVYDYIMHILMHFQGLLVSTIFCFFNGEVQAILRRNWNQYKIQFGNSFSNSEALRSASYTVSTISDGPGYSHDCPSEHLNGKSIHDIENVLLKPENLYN
T1 sequence (O60896 24-148): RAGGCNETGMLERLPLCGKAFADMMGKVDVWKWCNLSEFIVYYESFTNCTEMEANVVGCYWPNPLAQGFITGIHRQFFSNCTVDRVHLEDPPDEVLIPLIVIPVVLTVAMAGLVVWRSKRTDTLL
Sequence of CLR (Q16602 23-461): as the sequence (Q16602 23-461) above

Consider secretin, for which the Emax in the assay with SCTR [1] (RAMP1) is on record as 127.7 ± 13.5%; in the assay on SCTR [1] (RAMP3), 97.8 ± 21.1%; in the assay on SCTR [1] (vector (no RAMP)), 100 ± 14.1%; in the assay on SCTR [2] (RAMP1), 81 ± 6.2%; with SCTR [2] (RAMP3) it was 67 ± 4.2∗∗ %; in the assay with SCTR [2] (vector (no RAMP)) it was 100 ± 4%. The Emax is on record as 100 ± 1% in the assay on SCTR [3], 91.8 ± 3.6% in the assay on SCTR [4] (RAMP1), 69.1 ± 4.9∗∗ % in the assay on SCTR [4] (RAMP3) and 100 ± 5.6% in the assay with SCTR [4] (vector (no RAMP)).

As for `CC[C@H](C)[C@H](NC(=O)[C@H](CCC(N)=O)NC(=O)[C@H](Cc1c[nH]cn1)NC(=O)[C@H](C)NC(=O)[C@H](CC(C)C)NC(=O)[C@H](CCCCN)NC(=O)[C@H](CCC(N)=O)NC(=O)[C@@H](NC(=O)[C@@H](NC(=O)[C@@H]1CSSC[C@H](NC(=O)CNC(=O)[C@H](Cc2ccccc2)NC(=O)[C@H](CO)NC(=O)[C@H](CCCNC(=N)N)NC(=O)[C@H](CC(C)C)NC(=O)CNC(=O)[C@H](CCC(N)=O)NC(=O)[C@H](Cc2ccccc2)NC(=O)[C@H](CC(N)=O)NC(=O)[C@H](CC(N)=O)NC(=O)[C@H](CCSC)NC(=O)[C@H](CO)NC(=O)[C@H](CCC(N)=O)NC(=O)[C@H](CCCNC(=N)N)NC(=O)[C@@H](N)Cc2ccc(O)cc2)C(=O)N[C@@H](CCCNC(=N)N)C(=O)N[C@@H](Cc2ccccc2)C(=O)NCC(=O)N[C@@H]([C@@H](C)O)C(=O)N1)[C@@H](C)O)C(C)C)C(=O)N[C@@H](Cc1ccc(O)cc1)C(=O)N[C@@H](CCC(N)=O)C(=O)N[C@@H](Cc1ccccc1)C(=O)N[C@H](C(=O)N[C@@H](CC(=O)O)C(=O)N[C@@H](CCCCN)C(=O)N[C@@H](CC(=O)O)C(=O)N[C@@H](CCCCN)C(=O)N[C@@H](CC(=O)O)C(=O)N[C@@H](CC(N)=O)C(=O)N[C@H](C(=O)N[C@@H](C)C(=O)N1CCC[C@H]1C(=O)N[C@@H](CCCNC(=N)N)C(=O)N[C@@H](CO)C(=O)N[C@@H](CCCCN)C(=O)N[C@H](C(=O)N[C@@H](CO)C(=O)N1CCC[C@H]1C(=O)N[C@@H](CCC(N)=O)C(=O)NCC(=O)N[C@@H](Cc1ccc(O)cc1)C(N)=O)[C@@H](C)CC)C(C)C)[C@@H](C)O` [Adrenomedullin, adrenomedullin], the Emax came to 17.9 ± 11.7% at CLR/RAMP3 [5], 46.3 ± 2.9% at CLR and 58.4 ± 10.9% on CLR/RAMP3 [6].
